Assays:
[1] = target: Cyclin-dependent kinase 5/CDK5 activator 1 (Homo sapiens, UniProt Q00535); test: biochemical; type: cell-based, Sf9
[2] = target: Casein kinase I isoform epsilon (Homo sapiens, UniProt P49674); test: biochemical; type: cell-based, Sf9
[3] = target: Dual specificity protein kinase CLK3 (Homo sapiens, UniProt P49761); test: biochemical; type: cell-based, Sf9
[4] = target: T1, Dual specificity tyrosine-phosphorylation-regulated kinase 2 (Homo sapiens, UniProt Q92630); test: biochemical; type: cell-based, Sf9
T1 sequence (Q92630 whole entry): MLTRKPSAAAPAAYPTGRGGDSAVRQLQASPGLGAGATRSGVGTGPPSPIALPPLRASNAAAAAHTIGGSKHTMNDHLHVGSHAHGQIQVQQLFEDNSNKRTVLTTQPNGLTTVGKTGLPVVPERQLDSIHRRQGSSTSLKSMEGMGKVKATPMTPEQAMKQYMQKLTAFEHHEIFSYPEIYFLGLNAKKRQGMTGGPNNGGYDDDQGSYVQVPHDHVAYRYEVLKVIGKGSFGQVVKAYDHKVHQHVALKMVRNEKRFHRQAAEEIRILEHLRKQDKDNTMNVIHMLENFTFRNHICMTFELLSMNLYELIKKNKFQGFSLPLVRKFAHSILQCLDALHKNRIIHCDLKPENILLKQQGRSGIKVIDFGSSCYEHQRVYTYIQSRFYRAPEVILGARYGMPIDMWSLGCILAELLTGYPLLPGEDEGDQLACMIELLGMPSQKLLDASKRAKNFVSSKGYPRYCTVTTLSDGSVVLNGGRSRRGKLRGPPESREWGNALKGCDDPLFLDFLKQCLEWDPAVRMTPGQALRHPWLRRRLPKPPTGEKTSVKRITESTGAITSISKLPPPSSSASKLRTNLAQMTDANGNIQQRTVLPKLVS

[5] = target: T2, Dual specificity tyrosine-phosphorylation-regulated kinase 3 (Homo sapiens, UniProt O43781); test: biochemical; type: cell-based, Sf9
T2 sequence (O43781 whole entry): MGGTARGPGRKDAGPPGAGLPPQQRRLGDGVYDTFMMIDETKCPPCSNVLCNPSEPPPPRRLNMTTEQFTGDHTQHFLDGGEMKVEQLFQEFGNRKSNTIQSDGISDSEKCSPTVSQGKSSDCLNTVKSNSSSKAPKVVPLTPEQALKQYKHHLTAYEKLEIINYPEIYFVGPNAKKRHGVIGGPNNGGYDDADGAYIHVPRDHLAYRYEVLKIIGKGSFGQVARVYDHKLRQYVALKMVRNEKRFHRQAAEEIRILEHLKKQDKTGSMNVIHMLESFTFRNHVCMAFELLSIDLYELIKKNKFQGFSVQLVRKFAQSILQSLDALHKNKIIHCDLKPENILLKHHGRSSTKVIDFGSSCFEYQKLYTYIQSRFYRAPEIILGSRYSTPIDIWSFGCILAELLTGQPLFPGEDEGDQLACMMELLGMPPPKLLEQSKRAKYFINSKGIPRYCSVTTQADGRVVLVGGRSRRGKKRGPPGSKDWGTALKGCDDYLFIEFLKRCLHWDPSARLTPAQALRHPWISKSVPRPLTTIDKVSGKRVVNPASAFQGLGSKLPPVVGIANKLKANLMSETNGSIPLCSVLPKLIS

[6] = target: T3, Dual specificity tyrosine-phosphorylation-regulated kinase 4 (Homo sapiens, UniProt Q9NR20); test: biochemical; type: cell-based, Sf9
T3 sequence (Q9NR20 whole entry): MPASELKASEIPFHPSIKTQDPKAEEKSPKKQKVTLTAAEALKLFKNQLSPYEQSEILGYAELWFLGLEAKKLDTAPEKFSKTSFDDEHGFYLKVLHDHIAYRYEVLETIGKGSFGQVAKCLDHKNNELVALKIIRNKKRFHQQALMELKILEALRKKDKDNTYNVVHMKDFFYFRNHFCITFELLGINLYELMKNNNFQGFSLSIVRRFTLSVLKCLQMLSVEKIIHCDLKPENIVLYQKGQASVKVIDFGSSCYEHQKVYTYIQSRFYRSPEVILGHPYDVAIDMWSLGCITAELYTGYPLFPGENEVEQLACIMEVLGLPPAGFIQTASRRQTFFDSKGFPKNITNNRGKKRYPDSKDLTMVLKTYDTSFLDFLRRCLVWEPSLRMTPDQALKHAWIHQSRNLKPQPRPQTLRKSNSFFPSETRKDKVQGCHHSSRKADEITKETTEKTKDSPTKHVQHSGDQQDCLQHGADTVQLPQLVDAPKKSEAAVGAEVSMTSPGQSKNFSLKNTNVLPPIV

[7] = target: T4, Glycogen synthase kinase-3 beta (Homo sapiens, UniProt P49841); test: biochemical; type: cell-based, Sf9
[8] = target: T5, Dual specificity protein kinase CLK1 (Homo sapiens, UniProt P49759); test: biochemical; type: cell-based, Sf9
[9] = target: T4, Glycogen synthase kinase-3 beta
in vitro = conditions: mouse, ht-22
[10] = target: Dual specificity protein kinase CLK2 (Homo sapiens, UniProt P49760); test: biochemical
[11] = target: Dual specificity protein kinase CLK4 (Homo sapiens, UniProt Q9HAZ1); test: biochemical
[12] = target: T5, Dual specificity protein kinase CLK1; test: biochemical; type: cell-based, Sf9; remark: listed apart in the source
[13] = target: T5, Dual specificity protein kinase CLK1

Sequence of Cyclin-dependent kinase 5/CDK5 activator 1 (Q00535 whole entry, canonical isoform): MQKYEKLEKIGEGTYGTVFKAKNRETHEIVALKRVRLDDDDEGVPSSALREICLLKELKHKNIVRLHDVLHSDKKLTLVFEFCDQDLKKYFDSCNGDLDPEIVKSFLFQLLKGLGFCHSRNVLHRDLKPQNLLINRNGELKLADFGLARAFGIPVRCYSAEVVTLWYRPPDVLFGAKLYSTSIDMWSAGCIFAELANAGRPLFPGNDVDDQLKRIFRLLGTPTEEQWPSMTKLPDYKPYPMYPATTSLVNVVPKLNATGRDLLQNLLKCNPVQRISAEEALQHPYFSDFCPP
Sequence of Cyclin-dependent kinase 5/CDK5 activator 1 (Q15078 whole entry, further chain, canonical isoform): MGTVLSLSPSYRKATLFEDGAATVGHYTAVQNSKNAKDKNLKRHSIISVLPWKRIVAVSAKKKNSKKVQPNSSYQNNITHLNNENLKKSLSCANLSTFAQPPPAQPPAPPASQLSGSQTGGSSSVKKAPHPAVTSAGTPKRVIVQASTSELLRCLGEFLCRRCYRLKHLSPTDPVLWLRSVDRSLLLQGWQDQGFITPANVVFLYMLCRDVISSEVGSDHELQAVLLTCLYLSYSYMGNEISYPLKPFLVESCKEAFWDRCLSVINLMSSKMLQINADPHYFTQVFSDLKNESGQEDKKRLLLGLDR
Sequence of Dual specificity protein kinase CLK2 (P49760 whole entry): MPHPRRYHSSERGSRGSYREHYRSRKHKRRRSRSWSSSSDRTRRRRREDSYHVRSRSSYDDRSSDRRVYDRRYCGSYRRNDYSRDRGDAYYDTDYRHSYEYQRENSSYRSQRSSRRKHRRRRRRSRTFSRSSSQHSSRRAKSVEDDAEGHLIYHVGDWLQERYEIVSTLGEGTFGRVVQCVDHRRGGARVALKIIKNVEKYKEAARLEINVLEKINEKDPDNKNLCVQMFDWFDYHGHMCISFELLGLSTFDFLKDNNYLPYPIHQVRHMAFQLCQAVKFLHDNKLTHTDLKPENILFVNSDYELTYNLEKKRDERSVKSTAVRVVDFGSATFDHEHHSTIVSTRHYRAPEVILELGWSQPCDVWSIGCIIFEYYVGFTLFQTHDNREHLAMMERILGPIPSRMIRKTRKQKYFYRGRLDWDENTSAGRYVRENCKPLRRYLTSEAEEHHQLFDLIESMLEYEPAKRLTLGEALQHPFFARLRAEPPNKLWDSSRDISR
T5 sequence (P49759 whole entry): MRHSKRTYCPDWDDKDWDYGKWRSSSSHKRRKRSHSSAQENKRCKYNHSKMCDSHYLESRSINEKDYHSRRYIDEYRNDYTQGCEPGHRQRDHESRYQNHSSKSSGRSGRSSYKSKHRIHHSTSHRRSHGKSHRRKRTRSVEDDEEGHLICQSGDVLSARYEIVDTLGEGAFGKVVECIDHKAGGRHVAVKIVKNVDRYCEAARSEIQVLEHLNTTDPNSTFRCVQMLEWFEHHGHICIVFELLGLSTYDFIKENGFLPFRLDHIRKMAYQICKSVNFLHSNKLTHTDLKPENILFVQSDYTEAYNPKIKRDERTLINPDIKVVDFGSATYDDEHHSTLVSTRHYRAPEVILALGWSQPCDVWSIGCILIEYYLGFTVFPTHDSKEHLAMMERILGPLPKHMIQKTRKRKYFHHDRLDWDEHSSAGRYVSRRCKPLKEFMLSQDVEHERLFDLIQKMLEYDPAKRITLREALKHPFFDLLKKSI
Sequence of Dual specificity protein kinase CLK4 (Q9HAZ1 whole entry): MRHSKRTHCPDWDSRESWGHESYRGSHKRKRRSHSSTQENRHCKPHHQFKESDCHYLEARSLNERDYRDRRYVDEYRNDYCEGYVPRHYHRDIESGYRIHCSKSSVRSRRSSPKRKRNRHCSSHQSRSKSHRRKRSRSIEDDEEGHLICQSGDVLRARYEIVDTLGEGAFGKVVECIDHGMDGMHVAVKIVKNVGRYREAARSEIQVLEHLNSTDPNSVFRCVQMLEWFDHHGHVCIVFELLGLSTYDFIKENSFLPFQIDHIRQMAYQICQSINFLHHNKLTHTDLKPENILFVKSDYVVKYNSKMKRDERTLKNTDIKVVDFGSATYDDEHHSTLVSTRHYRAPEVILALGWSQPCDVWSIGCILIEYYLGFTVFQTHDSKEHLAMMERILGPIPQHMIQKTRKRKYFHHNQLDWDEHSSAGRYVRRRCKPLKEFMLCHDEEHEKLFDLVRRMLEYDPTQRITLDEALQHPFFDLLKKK
T4 sequence (P49841 whole entry): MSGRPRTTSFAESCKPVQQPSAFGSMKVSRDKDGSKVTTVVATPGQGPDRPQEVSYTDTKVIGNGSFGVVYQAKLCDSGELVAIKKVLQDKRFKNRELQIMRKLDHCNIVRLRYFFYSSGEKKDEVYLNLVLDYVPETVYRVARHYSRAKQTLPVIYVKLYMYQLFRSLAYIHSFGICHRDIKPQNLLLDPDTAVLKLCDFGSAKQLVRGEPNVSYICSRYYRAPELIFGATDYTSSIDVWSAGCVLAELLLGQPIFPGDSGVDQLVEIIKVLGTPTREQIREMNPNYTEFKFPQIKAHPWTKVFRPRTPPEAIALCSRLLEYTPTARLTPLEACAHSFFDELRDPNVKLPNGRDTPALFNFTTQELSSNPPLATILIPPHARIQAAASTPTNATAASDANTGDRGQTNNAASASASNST
Sequence of Casein kinase I isoform epsilon (P49674 whole entry, canonical isoform): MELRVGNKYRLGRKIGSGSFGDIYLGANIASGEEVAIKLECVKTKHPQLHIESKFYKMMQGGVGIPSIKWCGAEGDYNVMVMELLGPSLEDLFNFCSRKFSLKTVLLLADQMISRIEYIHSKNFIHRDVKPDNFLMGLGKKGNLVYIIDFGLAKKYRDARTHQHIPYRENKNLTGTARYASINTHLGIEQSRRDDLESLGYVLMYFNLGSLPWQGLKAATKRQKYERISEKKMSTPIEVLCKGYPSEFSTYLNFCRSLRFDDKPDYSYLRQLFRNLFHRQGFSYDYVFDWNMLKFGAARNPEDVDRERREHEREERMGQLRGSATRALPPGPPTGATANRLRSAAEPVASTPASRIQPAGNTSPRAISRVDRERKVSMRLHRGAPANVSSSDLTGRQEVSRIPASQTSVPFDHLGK
Sequence of Dual specificity protein kinase CLK3 (P49761 whole entry): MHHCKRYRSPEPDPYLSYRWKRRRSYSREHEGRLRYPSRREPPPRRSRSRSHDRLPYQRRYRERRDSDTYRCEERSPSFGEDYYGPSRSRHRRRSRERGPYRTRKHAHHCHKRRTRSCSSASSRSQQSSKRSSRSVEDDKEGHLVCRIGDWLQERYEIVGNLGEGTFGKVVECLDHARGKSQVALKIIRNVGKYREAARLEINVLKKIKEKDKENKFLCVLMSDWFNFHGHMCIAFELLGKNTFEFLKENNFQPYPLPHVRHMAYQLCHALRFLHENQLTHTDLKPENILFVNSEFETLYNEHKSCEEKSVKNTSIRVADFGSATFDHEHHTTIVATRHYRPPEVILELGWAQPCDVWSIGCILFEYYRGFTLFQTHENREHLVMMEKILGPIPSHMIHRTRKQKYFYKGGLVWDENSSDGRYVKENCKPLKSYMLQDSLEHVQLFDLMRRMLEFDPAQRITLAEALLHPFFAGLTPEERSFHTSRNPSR

IC50 [1]	IC50 [2]	IC50 [3]	IC50 [4]	IC50 [5]	IC50 [6]	IC50 [7]	IC50 ([8]; sf9)	Kd [9]	IC50 at 48 h (in vitro)	IC50 [10]	IC50 [11]	IC50 [12]	Kd [13]	IC50 ([8]; read-out: IC50)	Compound
> 10000 nM	> 10000 nM	> 10000 nM	1100 nM	> 10000 nM	> 10000 nM	3390 nM	Not Active	936 nM	> 100000 nM	2500 nM	> 10000 nM				CN1Cc2nn(C)c(C#N)c2-c2cnc3[nH]c(F)c(c3c2)-c2cn(nc2C(F)(F)F)CCCC1=O
> 10000 nM	2980 nM	4790 nM	226 nM	82.6 nM	894 nM	4400 nM		1640 nM	> 100000 nM	315 nM	10.9 nM	44.2 nM	1.27 nM		CCN1/C(=C/C(C)=O)Sc2ccc(O)cc21
273 nM	2900 nM	1190 nM	10 nM	> 10000 nM	171 nM	> 10000 nM		9590 nM	5800 nM	36.5 nM	9.5 nM				Cc1nc2ccc(-c3cc(N)nc(N)c3)nc2n1C(C)C
24.5 nM	405 nM	11.9 nM	118 nM	10.4 nM	2590 nM	17.6 nM		3.93 nM	160 nM	1.1 nM	6.9 nM	18.8 nM	0.056 nM	30.8 nM	Cc1ccc([N+](=O)[O-])cc1S(=O)(=O)N(C)/N=C/c1cnc2ccc(Br)cn12
38.4 nM	38.9 nM	207 nM	32.9 nM	71.9 nM	26.8 nM	159 nM		260 nM	5500 nM	14.3 nM	4.7 nM	10.4 nM	1.31 nM	37.9 nM	Oc1ccc(-c2n[nH]c3ncc(-c4ccc(O)c(O)c4)cc23)cc1
	> 10000 nM	> 10000 nM			> 10000 nM	> 10000 nM		475 nM	> 100000 nM	5140 nM	316 nM	3610 nM	6.22 nM	14.6 nM	O=C(O)c1nc2ccccc2c2[nH]c3c(I)cccc3c12
> 10000 nM	> 10000 nM	> 10000 nM	8780 nM	> 10000 nM	> 10000 nM	> 10000 nM		7290 nM	51300 nM	6710 nM					CN1Cc2nn(C)c(C#N)c2-c2cnc3[nH]cc(c3c2)-c2cn(nc2C(F)(F)F)CCCC1=O
9670 nM	> 10000 nM	2970 nM	3270 nM	4450 nM	9590 nM	> 10000 nM		> 10000 nM	58600 nM		219 nM	319 nM	5.38 nM		CN(C)c1nccc(-c2cnn3ncccc23)n1

Compound	IC50 [1]	IC50 [2]	IC50 [3]	IC50 [4]	IC50 [5]	IC50 [6]	IC50 [7]	IC50 ([8]; sf9)	Kd [9]	IC50 at 48 h (in vitro)	IC50 [10]	IC50 [11]	IC50 [12]	Kd [13]	IC50 ([8]; read-out: IC50)
CCOC(=O)c1c(/C(C#N)=C\N)c2ccc(Cl)c(Cl)c2n1C	> 10000 nM	> 10000 nM		> 10000 nM	> 10000 nM	> 10000 nM	> 10000 nM		> 10000 nM	> 100000 nM		14.8 nM			
CN1C(=O)/C(=C/c2ccc3c(c2)OCO3)N=C1N [LEUCETTAMINE B]		> 10000 nM	> 10000 nM	2730 nM	4890 nM	6370 nM	> 10000 nM		> 10000 nM	> 100000 nM	3090 nM	396 nM	646 nM	36.9 nM	
O=c1c2c(O)cc(O)cc2oc2c(O)ccc(O)c12 [DEMETHYLBELLIDIFOLIN]	> 10000 nM	> 10000 nM	7530 nM	2710 nM	> 10000 nM	> 10000 nM	> 10000 nM		> 10000 nM	2500 nM	1700 nM	146 nM	239 nM	29.7 nM	

From ChEMBL document CHEMBL5247649, “Comparative Efficacy and Selectivity of Pharmacological Inhibitors of DYRK and CLK Protein Kinases” (J Med Chem, 2023)
